Like-named read-outs stand apart in the source and are kept apart here.
Legend:
[1] = test system: Th17-dependent learned helplessness; conditions: mice; cited from earlier work
obese diabetic mice = conditions: cited from earlier work
full-length human RORγt = full-length human RORγt (Homo sapiens (Human), UniProt P51449); test: RORγt (full-length human) reporter assay, conditions A or B; type: cell-based; conditions: for inhibition at 2 µM: 2 μM compound concentration (**); for IC50: HEK293T cells, read-out: RORγt (FL) Reporter Assay A or B, IC50; for inhibition at 0.22 µM: 0.22 μM compound concentration (******)
How it was run: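 HEK293T cells transiently co-transfected (PEI) with GAL4-DBD–RORγt, GAL4-firefly luciferase and CMV-Renilla reporters; condition A 35,000 cells/well, 170.5 ng DNA/well; condition B 8750 cells/well, 42.6 ng DNA/well.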

[2] = target: human RORγt ligand binding domain (RORγt LBD) (Homo sapiens (Human), UniProt P51449); test: RORγt ThermoFluor assay
How it was run: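 Thermal shift of His-tagged human RORγt LBD (0.065 mg/mL) with 60 μM 1,8-ANS in 100 mM Hepes pH 7.0, 10 mM NaCl, 2.5 mM GSH, 0.002% Tween-20, heated at 1° C./min. Compounds in 1:2 series from a 10 mM DMSO stock; KD estimated from ΔTm using protein unfolding thermodynamics.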

[3] = read-out: RORγt (FL) Reporter Assay A or B, % inhibition
[4] = 3 μM compound concentration (*), read-out: RORγt (FL) Reporter Assay A or B, % inhibition

Sequence of full-length human RORγt (P51449 other isoform, or with tags, fused parts or gaps): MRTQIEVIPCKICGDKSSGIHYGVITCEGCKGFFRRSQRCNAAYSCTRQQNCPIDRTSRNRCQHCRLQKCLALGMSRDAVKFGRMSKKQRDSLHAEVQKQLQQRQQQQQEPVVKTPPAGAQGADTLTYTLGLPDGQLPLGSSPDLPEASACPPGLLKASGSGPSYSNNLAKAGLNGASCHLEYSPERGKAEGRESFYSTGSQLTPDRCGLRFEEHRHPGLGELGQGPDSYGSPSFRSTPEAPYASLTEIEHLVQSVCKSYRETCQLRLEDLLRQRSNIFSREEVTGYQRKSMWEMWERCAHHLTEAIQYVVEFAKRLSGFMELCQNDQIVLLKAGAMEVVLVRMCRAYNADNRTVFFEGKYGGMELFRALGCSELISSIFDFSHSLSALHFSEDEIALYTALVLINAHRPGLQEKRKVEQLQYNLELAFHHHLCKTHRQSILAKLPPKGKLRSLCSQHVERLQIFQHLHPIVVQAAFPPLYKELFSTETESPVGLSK
Sequence of human RORγt ligand binding domain (RORγt LBD) (P51449 other isoform, or with tags, fused parts or gaps): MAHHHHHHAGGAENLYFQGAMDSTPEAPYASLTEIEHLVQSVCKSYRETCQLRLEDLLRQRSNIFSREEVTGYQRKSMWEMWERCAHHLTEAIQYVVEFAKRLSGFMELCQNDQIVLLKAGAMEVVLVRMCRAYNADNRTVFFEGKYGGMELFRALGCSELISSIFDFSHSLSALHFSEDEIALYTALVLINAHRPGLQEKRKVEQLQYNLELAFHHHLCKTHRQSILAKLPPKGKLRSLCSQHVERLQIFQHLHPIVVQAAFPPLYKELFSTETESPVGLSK

SMILES | inhibition at 2 µM (full-length human RORγt; [3]) [%] | IC50 (full-length human RORγt) [nM] | Kd [2] [nM] | other results
CC(=O)Nc1nc(C)c(S(=O)(=O)Nc2ccc(C(O)(C(F)(F)F)C(F)(F)F)cc2)s1 [SR1001] | – | – | – | Th17-dependent learned helplessness [1]: reduced
CC(=O)N1CCN(Cc2ccc(-c3ccc(C(O)(C(F)(F)F)C(F)(F)F)cc3)cc2)CC1 [SR1555] | – | – | – | body weight (obese diabetic mice): reduced; fat mass (obese diabetic mice): significant reduction; food intake (obese diabetic mice): modest reduction; insulin sensitivity (obese diabetic mice): improved
CCc1nc(C(=O)NC[C@H]2CC[C@H](S(N)(=O)=O)CC2)c(Cl)n1-c1ncc(CC(C)(C)C(F)(F)F)cc1OC(F)F [Example 69, 5-Chloro-1-(3-(difluoromethoxy)-5-(3,3,3-trifluoro-2,2-dimethylpropyl)pyridin-2-yl)-2-ethyl-N-(((1r,4r)-4-sulfamoylcyclohexyl)methyl)-1H-imidazole-4-carboxamide] | – | 39 | 7.2 | inhibition at 3 µM (full-length human RORγt; [4]): 102%
CCc1cc(CC(C)(C)C(F)(F)F)cnc1-n1c(CC)nc(C(=O)NC[C@H]2CC[C@H](S(C)(=O)=O)CC2)c1Cl [Example 75, 5-Chloro-2-ethyl-1-(3-ethyl-5-(3,3,3-trifluoro-2,2-dimethylpropyl)pyridin-2-yl)-N-(((1r,4r)-4-(methylsulfonyl)cyclohexyl)methyl)-1H-imidazole-4-carboxamide] | – | 59 | 8.3 | inhibition at 3 µM (full-length human RORγt; [4]): 110%
CCc1nc(C(=O)NC[C@H]2CC[C@H](S(C)(=O)=O)CC2)c(C)n1-c1ccc(CC(C)(C)C(F)(F)F)c(OC)c1 [Example 44, 2-Ethyl-1-(3-methoxy-4-(3,3,3-trifluoro-2,2-dimethylpropyl)phenyl)-5-methyl-N-(((1r,4r)-4-(methylsulfonyl)cyclohexyl)methyl)-1H-imidazole-4-carboxamide] | – | 31 | 4.1 | inhibition at 0.22 µM (full-length human RORγt; [3]): 75%
Cc1nc(C(=O)NC[C@H]2CC[C@H](S(C)(=O)=O)C[C@@H]2O)c(C#N)n1-c1ccc(CC(C)(C)C(F)(F)F)cc1OC(F)F (single isomer, unassigned) [Example 56, 5-Cyano-1-(2-(difluoromethoxy)-4-(3,3,3-trifluoro-2,2-dimethylpropyl)phenyl)-N-(((1R*,2S*,4S*)-2-hydroxy-4-(methylsulfonyl)cyclohexyl)methyl)-2-methyl-1H-imidazole-4-carboxamide] | – | 63 | 32 | inhibition at 3 µM (full-length human RORγt; read-out: RORγt (FL) Reporter Assay A or B, % inhibition, 3 μM compound concentration (*)): 102%
CCc1nc(C(=O)NC[C@H]2CC[C@H](S(C)(=O)=O)CC2)c(Cl)n1-c1ccc(CC(C)(C)C(F)(F)F)c(OC)c1 [Example 42, 5-Chloro-2-ethyl-1-(3-methoxy-4-(3,3,3-trifluoro-2,2-dimethylpropyl)phenyl)-N-(((1r,4r)-4-(methylsulfonyl)cyclohexyl)methyl)-1H-imidazole-4-carboxamide] | – | 6.2 | 1.1 | inhibition at 0.22 µM (full-length human RORγt; [3]): 66%

Now from value to molecule, other results behind:

inhibition at 2 µM (full-length human RORγt; [3]) [%] | IC50 (full-length human RORγt) [nM] | Kd [2] [nM] | SMILES | other results
80 | 360 | 50 | CCc1nc(C(=O)NC[C@]2(O)CC[C@@H](S(C)(=O)=O)CC2)cn1-c1ccc(C[C@H](C)C(F)(F)F)cc1OC (single isomer, unassigned) [Example 19, 2-Ethyl-N-(((1s,4R)-1-hydroxy-4-(methylsulfonyl)cyclohexyl)methyl)-1-(2-methoxy-4-((S*)-3,3,3-trifluoro-2-methylpropyl)phenyl)-1H-imidazole-4-carboxamide] | –
44 | 370 | 150 | CCc1nc(C(=O)NC[C@H]2CC[C@H](S(C)(=O)=O)CC2)cn1-c1c(F)cc(CC(C)C)cc1F [Example 82, 1-(2,6-Difluoro-4-isobutylphenyl)-2-ethyl-N-(((1r,4r)-4-(methylsulfonyl)cyclohexyl)methyl)-1H-imidazole-4-carboxamide] | –
– | 39 | 1 | CCCc1nc(C(=O)NC[C@H]2CC[C@H](S(C)(=O)=O)CC2)c(Cl)n1-c1ccc(N[C@H](C)C(F)(F)F)cc1OC [Example 11, 5-Chloro-1-(2-methoxy-4-(((R)-1,1,1-trifluoropropan-2-yl)amino)phenyl)-N-(((1r,4R)-4-(methylsulfonyl)cyclohexyl)methyl)-2-propyl-1H-imidazole-4-carboxamide] | inhibition at 6 µM (full-length human RORγt; read-out: RORγt (FL) Reporter Assay A or B, % inhibition @ 6 μM, 6 μM compound concentration): 102%
103 | 16 | 1.3 | CCc1nc(C(=O)NC[C@H]2CC[C@H](S(C)(=O)=O)CC2)c(C#N)n1-c1ccc(CC(C)C(F)(F)F)cc1OC (some centres unmarked) [Example 16, 5-Cyano-2-ethyl-1-(2-methoxy-4-(3,3,3-trifluoro-2-methylpropyl)phenyl)-N-(((1r,4r)-4-(methylsulfonyl)cyclohexyl)methyl)-1H-imidazole-4-carboxamide] | –
94 | 170 | 21 | CCc1nc(C(=O)NC[C@H]2CC[C@H](S(C)(=O)=O)CC2)cn1-c1ccc(C[C@H](C)C(F)(F)F)cc1OC (single isomer, unassigned) [Example 20, 2-Ethyl-1-(2-methoxy-4-((S*)-3,3,3-trifluoro-2-methylpropyl)phenyl)-N-(((1r,4S)-4-(methylsulfonyl)cyclohexyl)methyl)-1H-imidazole-4-carboxamide] | –
93 | 230 | 28 | CCc1nc(C(=O)NC[C@H]2CC[C@H](S(C)(=O)=O)CC2)cn1-c1ccc(C[C@@H](C)C(F)(F)F)cc1OC (single isomer, unassigned) [Example 18, 2-Ethyl-1-(2-methoxy-4-((R*)-3,3,3-trifluoro-2-methylpropyl)phenyl)-N-(((1r,4R)-4-(methylsulfonyl)cyclohexyl)methyl)-1H-imidazole-4-carboxamide] | –
